This note sets out measurements from publication PMC5429603, “Discovery and characterization of verinurad, a potent and specific inhibitor of URAT1 for the treatment of hyperuricemia and gout” (Scientific Reports, 2017).

Assay [1] concerns the target T1, human URAT1 h-M22V (Homo sapiens, UniProt Q96S37, M22V).
T1 construct: expressed in transfected cells; host or cells: HEK-293T
In words: URAT1 activity assay, h-M22V. The settings on record: TM1 point mutant, read-out: Verinurad affinity (IC50). In kind it is cell-based. The text has this:
(§1) Human URAT1 (GenBank BC053348.1, Homo sapiens SLC22A12), rat URAT1 (NCBI NM_001034943.1, Rattus norvegicus Slc22a12) and human OAT4 (NCBI NM_018484.2, Homo sapiens SLC22A11) genes were purchased from Origene Technologies, Inc. and subcloned into pCMV6/neo using NotI. Where indicated, controls transfections used pCMV6/neo. Mutants were produced by site-directed mutagenesis using the QuikChange Lightning Multi Site-Directed Mutagenesis Kit (Agilent Technologies). […] Mutagenic primer sequences are provided in ref. [15] and mutagenic primer sequences for previously unreported mutants shown in Supplementary Table 1. All constructs used in this study were untagged. Human OAT1 was purchased from Fisher Scientific (catalog # MHS1010–7508183 in pSPORT6, NCBI NM_153276.2, Homo sapiens SLC22A6).
(§2) HEK-293T cells were maintained in DMEM/high glucose/L-glutamine/HEPES supplemented with 1 mM sodium pyruvate (Life Technologies) and 10% FBS (PAA Laboratories) at 37 °C in 5% CO2. […]
(§3) URAT1 and OAT4 activity assays were performed in assay buffer consisting of 25 mM MES pH 5.5 (from a 1 M MES solution [Sigma] adjusted to pH 5.5 with sodium hydroxide), 125 mM sodium gluconate, 4.8 mM potassium gluconate, 1.2 mM monobasic potassium phosphate, 1.2 mM magnesium sulfate, 1.3 mM calcium gluconate and 5.6 mM glucose. […] Each treatment was measured in triplicate.

For assay [2], the target named is T2, human URAT1 h-C32T (Homo sapiens, UniProt Q96S37, C32T).
T2 construct: expressed in transfected cells; host or cells: HEK-293T
T2 sequence (Q96S37 whole entry C32T): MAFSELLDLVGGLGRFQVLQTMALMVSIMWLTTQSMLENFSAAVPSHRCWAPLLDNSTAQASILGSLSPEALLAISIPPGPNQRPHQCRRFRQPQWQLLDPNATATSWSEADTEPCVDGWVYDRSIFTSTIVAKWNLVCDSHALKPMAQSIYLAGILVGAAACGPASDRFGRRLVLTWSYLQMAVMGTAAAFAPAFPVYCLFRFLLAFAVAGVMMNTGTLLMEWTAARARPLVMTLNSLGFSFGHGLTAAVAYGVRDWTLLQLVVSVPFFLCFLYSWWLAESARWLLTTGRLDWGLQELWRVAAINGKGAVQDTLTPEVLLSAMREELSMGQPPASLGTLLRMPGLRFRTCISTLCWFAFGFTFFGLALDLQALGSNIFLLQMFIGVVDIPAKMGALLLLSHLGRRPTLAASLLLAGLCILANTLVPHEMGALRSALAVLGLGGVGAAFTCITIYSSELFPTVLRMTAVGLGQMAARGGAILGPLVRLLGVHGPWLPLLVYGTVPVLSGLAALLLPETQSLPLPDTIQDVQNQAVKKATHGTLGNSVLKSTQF
In words: URAT1 activity assay, h-C32T. Format: cell-based.
Text: as §1, §2, §3

In assay [3] the target is T3, human URAT1 h-I481M (Homo sapiens, UniProt Q96S37, I481M).
T3 construct: expressed in transfected cells; host or cells: HEK-293T
T3 sequence (Q96S37 whole entry I481M): as the sequence (Q96S37 whole entry C32T) above, with T32C, I481M counted along it
In words: URAT1 activity assay, h-I481M. In kind it is cell-based.
Text: as §1, §2, §3

Assay [4] deals with T4, rat URAT1 r-T32C (Rattus norvegicus, UniProt Q3ZAV1, T32C).
T4 construct: expressed in transfected cells; host or cells: HEK-293T
T4 sequence (Q3ZAV1 whole entry T32C): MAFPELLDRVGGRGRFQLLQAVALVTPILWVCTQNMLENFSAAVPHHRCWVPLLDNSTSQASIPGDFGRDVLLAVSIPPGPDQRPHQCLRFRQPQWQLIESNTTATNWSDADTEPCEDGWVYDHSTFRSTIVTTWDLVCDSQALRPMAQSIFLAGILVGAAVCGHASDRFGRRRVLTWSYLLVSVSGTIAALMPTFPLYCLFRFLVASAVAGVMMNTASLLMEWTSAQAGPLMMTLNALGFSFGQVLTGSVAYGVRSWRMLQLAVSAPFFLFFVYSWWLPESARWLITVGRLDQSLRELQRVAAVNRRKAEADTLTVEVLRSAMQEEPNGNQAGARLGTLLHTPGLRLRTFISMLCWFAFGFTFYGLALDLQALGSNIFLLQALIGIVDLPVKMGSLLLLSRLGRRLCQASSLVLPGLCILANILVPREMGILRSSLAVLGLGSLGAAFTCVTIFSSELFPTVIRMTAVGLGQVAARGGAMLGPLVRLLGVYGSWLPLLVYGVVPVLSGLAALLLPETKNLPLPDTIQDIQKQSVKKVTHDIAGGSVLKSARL
In words: URAT1 activity assay, r-T32C. Format: cell-based.
Text: as §1, §2, §3

Assay [5] concerns the target rat URAT1 r-L18V (Rattus norvegicus, UniProt Q3ZAV1, L18V). In words: cell-based.
Text: as §1
(§4) HEK-293T cells were maintained in DMEM/high glucose/L-glutamine/HEPES supplemented with 1 mM sodium pyruvate (Life Technologies) and 10% FBS (PAA Laboratories) at 37 °C in 5% CO2. To express URAT1, OAT4 or OAT1, plasmids were reverse transfected into HEK-293T cells. DNA (10 µg) was mixed with 30 µl of DreamFect Gold (Boca Scientific) in 2 ml OptiMem (Life Technologies). After 20 minutes, 18 ml of media containing 2 × 10^7 cells in suspension was added and mixed, and 200 µl per well were plated onto white clear-bottomed poly-D-lysine coated 96-well plates (BD Biosciences). The cells were assayed the following day.
(§5) URAT1 and OAT4 activity assays were performed in assay buffer consisting of 25 mM MES pH 5.5 (from a 1 M MES solution [Sigma] adjusted to pH 5.5 with sodium hydroxide), 125 mM sodium gluconate, 4.8 mM potassium gluconate, 1.2 mM monobasic potassium phosphate, 1.2 mM magnesium sulfate, 1.3 mM calcium gluconate and 5.6 mM glucose. URAT1 inhibitors were serially diluted into assay buffer and added to the cells for 5 minutes prior to addition of substrate. URAT1-expressing cells were incubated with 100 µM ^14C-uric acid for 10 minutes and OAT4-expressing cells were incubated with 20 µM carboxyfluorescein (Life Technologies, Inc.) for 5 minutes. Cells were then washed three times in 25 mM MES pH 5.5/125 mM sodium gluconate, and solubilized in Ultima Gold (Perkin Elmer) prior to liquid scintillation counting. Each treatment was measured in triplicate.

Assay [6] concerns the target rat URAT1 r-V31L (Rattus norvegicus, UniProt Q3ZAV1, V31L). In words: cell-based.
Text: as §1, §4, §5

Assay [7] addresses rat URAT1 r-Y365F/M481I (Rattus norvegicus, UniProt Q3ZAV1, M481I/Y365F). In words: cell-based.
Text: as §1, §4, §5

The subject of assay [8] is healthy human volunteers. In words: Verinurad study in humans (sUA and FEUA after a single dose). Format: in vivo. The settings on record: single 40 mg dose. Here is the method: The study was conducted in accordance with Good Clinical Practice and the Declaration of Helsinki and with independent ethics committee (Welwyn Clinical Pharmacology Ethics Committee, Hatfield, UK) approval. Informed consent was obtained from all subjects before participating in the study. […] Urine samples were collected from 0 to 6 hours, 6 to 12 hours and 12 to 24 hours post dosing to measure the urinary excretion of uric acid and creatinine. FEUA was calculated using equation 1:1 FEUA=([urineuricacid]×[serumcreatinine])/([serumuricacid]×[urinecreatinine]) To determine time-weighted average plasma verinurad concentrations (TWA), plasma verinurad levels were first measured from serial plasma collections.

Where [9] appears, read: TM1 point mutant, read-out: Verinurad affinity (IC50).

Sequence of rat URAT1 r-Y365F/M481I (Q3ZAV1 whole entry Y365F/M481I): as the sequence (Q3ZAV1 whole entry T32C) above, with C32T, Y365F, M481I counted along it
Sequence of rat URAT1 r-L18V (Q3ZAV1 whole entry L18V): as the sequence (Q3ZAV1 whole entry T32C) above, with L18V, C32T counted along it
T1 sequence (Q96S37 whole entry M22V): as the sequence (Q96S37 whole entry C32T) above, with M22V, T32C counted along it
Sequence of rat URAT1 r-V31L (Q3ZAV1 whole entry V31L): as the sequence (Q3ZAV1 whole entry T32C) above, with V31L, C32T counted along it

What is called IC50 is the concentration that gives 50% inhibition. `CC(C)(Sc1ccncc1-c1ccc(C#N)c2ccccc12)C(=O)O` [Verinurad, 2-((3-(4-cyanonaphthalen-1-yl)pyrindin-4-yl)thio)-2-methylpropanoic acid]: the IC50 in assay [1] was determined as 29 ± 13 nM; in assay [2] (setting [9]), 95 ± 26 nM; in assay [3] (TM11 point mutant, read-out: Verinurad affinity (IC50)), 53 ± 10 nM; in assay [4] (setting [9]), 29000 ± 3100 nM; in assay [5], 40000 ± 6100 nM; in assay [6] it was 29000 ± 3200 nM. Further, the IC50 in assay [7] amounted to 590 nM. Also, the “fold reduced affinity relative to human URAT1” value in assay [2] worked out at 4 fold. Moreover, in assay [3], the “fold reduction in affinity compared to human URAT1” value turned out to be 2 fold. In assay [4], the “fold increase in affinity relative to rat URAT1” value was determined as 1.4 fold. Moreover, the “time sUA is maintained below pretreatment levels” value in assay [8] came out at 24 h. The EC50 in assay [8] (healthy human volunteers, time-weighted average plasma concentration, read-out: half-maximal effective concentration in plasma for increase in FEUA) came out at 22 nM.
